Results: ChEMBL document CHEMBL3102697, “Controlled-deactivation cannabinergic ligands” (J Med Chem, 2013)
Calls of active or inactive are those of the source. The rule behind the calls is not given here.

test system: Rattus norvegicus; experiment: Induction of hypothermia in Sprague-Dawley rat at 0.3 mg/kg, sc after 2 hrs; type: functional; conditions: route subcutaneous

Compound | T
CCCCOC(=O)C(C)(C)c1cc(O)c2c(c1)OC(C)(C)[C@@H]1CC=C(C)C[C@@H]21 | 2 °C

molecular target: T1, Cannabinoid receptor 1 (Rattus norvegicus, UniProt P20272); experiment: Displacement of [3H]CP-55,940 from CB1 receptor in rat brain by scintillation counting analysis; type: tissue-based; conditions: not given
T1 sequence (P20272 whole entry): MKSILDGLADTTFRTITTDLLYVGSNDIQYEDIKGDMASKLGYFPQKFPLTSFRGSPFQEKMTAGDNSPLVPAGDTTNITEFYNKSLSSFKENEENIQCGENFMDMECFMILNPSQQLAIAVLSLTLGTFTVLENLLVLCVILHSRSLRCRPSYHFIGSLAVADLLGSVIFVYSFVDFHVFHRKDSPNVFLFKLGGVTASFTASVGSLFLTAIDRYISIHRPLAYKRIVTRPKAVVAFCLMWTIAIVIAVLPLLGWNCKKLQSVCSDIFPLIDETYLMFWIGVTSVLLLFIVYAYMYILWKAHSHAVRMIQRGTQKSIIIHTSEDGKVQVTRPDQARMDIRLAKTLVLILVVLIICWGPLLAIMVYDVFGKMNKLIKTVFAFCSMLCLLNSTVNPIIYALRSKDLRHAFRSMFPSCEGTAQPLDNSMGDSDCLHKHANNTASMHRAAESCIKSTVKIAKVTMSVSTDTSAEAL

Compound | Ki
CCCCOC(=O)[C@@H](C)c1cc(O)c2c(c1)OC(C)(C)[C@@H]1CC=C(C)C[C@@H]21 | 0.6 nM
CC1=CC[C@@H]2[C@@H](C1)c1c(O)cc([C@@H](C)C(=O)O)cc1OC2(C)C | > 10000 nM
CC1=CC[C@@H]2[C@@H](C1)c1c(O)cc([C@H](C)C(=O)O)cc1OC2(C)C | > 10000 nM
CCCCOC(=O)Cc1cc(O)c2c(c1)OC(C)(C)[C@@H]1CC=C(C)C[C@@H]21 | 27.1 nM
CCCCOC(=O)C(C)(C)c1cc(O)c2c(c1)OC(C)(C)[C@@H]1CC=C(C)C[C@@H]21 | 0.3 nM

test system: Rattus norvegicus; experiment: Induction of hypothermia in sc dosed Sprague-Dawley rat measured for 6 hrs; type: functional, organism-based; conditions: not given

Compound | Activity
CCCCOC(=O)[C@@H](C)c1cc(O)c2c(c1)OC(C)(C)[C@@H]1CC=C(C)C[C@@H]21 | Dose-dependent effect
CC1=CC[C@@H]2[C@@H](C1)c1c(O)cc([C@@H](C)C(=O)O)cc1OC2(C)C | inactive
CC1=CC[C@@H]2[C@@H](C1)c1c(O)cc([C@H](C)C(=O)O)cc1OC2(C)C | inactive
CCCCOC(=O)C(C)(C)c1cc(O)c2c(c1)OC(C)(C)[C@@H]1CC=C(C)C[C@@H]21 | Dose-dependent effect

molecular target: Cannabinoid receptor 1 (Rattus norvegicus) (UniProt P20272); experiment: Agonist activity at rat CB1 receptor expressed in HEK293 cells assessed as inhibition of forskolin-stimulated cAMP accumulation up to 5 uM after 30 mins; type: functional, cell-based; conditions: not given
Sequence (P20272 whole entry): as above

Compound | inhibition
CCCCOC(=O)Cc1cc(O)c2c(c1)OC(C)(C)[C@@H]1CC=C(C)C[C@@H]21 | inactive

test system: Rattus norvegicus; experiment: Induction of hypothermia in Sprague-Dawley rat at 3 mg/kg, sc up to 300 mins; type: functional, organism-based; design: dose 3 mg/kg; conditions: not given

Compound | Activity
CCCCOC(=O)[C@@H](C)c1cc(O)c2c(c1)OC(C)(C)[C@@H]1CC=C(C)C[C@@H]21 | inactive
CCCCOC(=O)C(C)(C)c1cc(O)c2c(c1)OC(C)(C)[C@@H]1CC=C(C)C[C@@H]21 | inactive

test system: Rattus norvegicus; experiment: Induction of hypothermia in Sprague-Dawley rat at 0.3 mg/kg, sc up to 6 hrs; type: functional, organism-based; design: dose 0.3 mg/kg; conditions: not given

Compound | Activity
CCCCOC(=O)C(C)(C)c1cc(O)c2c(c1)OC(C)(C)[C@@H]1CC=C(C)C[C@@H]21 | Active

molecular target: Cannabinoid receptor 2 (Homo sapiens, UniProt P34972); experiment: Displacement of [3H]CP-55,940 from human CB2 receptor expressed in HEK293 cell membranes by scintillation counting analysis; conditions: not given
Sequence (P34972 whole entry): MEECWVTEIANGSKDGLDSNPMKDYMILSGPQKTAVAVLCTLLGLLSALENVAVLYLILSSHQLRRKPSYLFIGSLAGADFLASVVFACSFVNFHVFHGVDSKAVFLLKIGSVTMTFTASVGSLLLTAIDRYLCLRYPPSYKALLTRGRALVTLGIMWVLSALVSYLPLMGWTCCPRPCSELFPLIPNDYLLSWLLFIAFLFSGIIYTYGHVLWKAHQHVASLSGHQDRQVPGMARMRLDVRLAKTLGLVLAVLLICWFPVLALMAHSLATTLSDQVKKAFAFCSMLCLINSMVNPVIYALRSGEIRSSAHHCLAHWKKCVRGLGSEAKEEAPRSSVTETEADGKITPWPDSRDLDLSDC

Compound | Ki
CCCCOC(=O)[C@@H](C)c1cc(O)c2c(c1)OC(C)(C)[C@@H]1CC=C(C)C[C@@H]21 | 6.3 nM
CCCCOC(=O)Cc1cc(O)c2c(c1)OC(C)(C)[C@@H]1CC=C(C)C[C@@H]21 | 51.5 nM
CCCCOC(=O)C(C)(C)c1cc(O)c2c(c1)OC(C)(C)[C@@H]1CC=C(C)C[C@@H]21 | 1.7 nM

test system: Rattus norvegicus; experiment: Induction of hypothermia in Sprague-Dawley rat at 1 to 3 mg/kg, sc measured for 6 hrs; type: functional; conditions: dose mg/kg 1-3; route subcutaneous

Compound | T
CCCCOC(=O)[C@@H](C)c1cc(O)c2c(c1)OC(C)(C)[C@@H]1CC=C(C)C[C@@H]21 | 3.6 °C
CCCCOC(=O)C(C)(C)c1cc(O)c2c(c1)OC(C)(C)[C@@H]1CC=C(C)C[C@@H]21 | 3.6 °C

test system: Rattus norvegicus; experiment: Induction of hypothermia in Sprague-Dawley rat at 3 mg/kg, sc after 60 mins; type: functional, organism-based; design: dose 3 mg/kg; conditions: not given

Compound | Activity
CCCCOC(=O)C(C)(C)c1cc(O)c2c(c1)OC(C)(C)[C@@H]1CC=C(C)C[C@@H]21 | Active

molecular target: Cannabinoid receptor 2 (Mus musculus, UniProt P47936); experiment: Displacement of [3H]CP-55,940 from mouse CB2 receptor expressed in HEK293 cell membranes by scintillation counting analysis; conditions: not given
Sequence (P47936 whole entry): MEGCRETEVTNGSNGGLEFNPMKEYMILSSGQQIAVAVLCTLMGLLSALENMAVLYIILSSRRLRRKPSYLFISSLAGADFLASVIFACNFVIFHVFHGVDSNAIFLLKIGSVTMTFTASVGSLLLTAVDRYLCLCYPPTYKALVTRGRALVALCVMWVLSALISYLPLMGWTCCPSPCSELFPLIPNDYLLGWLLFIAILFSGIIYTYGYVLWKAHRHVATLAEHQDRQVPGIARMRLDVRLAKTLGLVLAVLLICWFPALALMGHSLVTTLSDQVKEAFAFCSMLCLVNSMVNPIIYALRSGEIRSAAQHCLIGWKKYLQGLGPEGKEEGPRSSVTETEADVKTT

Compound | Ki
CCCCOC(=O)[C@@H](C)c1cc(O)c2c(c1)OC(C)(C)[C@@H]1CC=C(C)C[C@@H]21 | 6.2 nM
CC1=CC[C@@H]2[C@@H](C1)c1c(O)cc([C@@H](C)C(=O)O)cc1OC2(C)C | > 10000 nM
CC1=CC[C@@H]2[C@@H](C1)c1c(O)cc([C@H](C)C(=O)O)cc1OC2(C)C | > 10000 nM
CCCCOC(=O)Cc1cc(O)c2c(c1)OC(C)(C)[C@@H]1CC=C(C)C[C@@H]21 | 40.4 nM
CCCCOC(=O)C(C)(C)c1cc(O)c2c(c1)OC(C)(C)[C@@H]1CC=C(C)C[C@@H]21 | 2.1 nM

molecular target: Cannabinoid receptor 1 (Rattus norvegicus) (UniProt P20272); experiment: Agonist activity at rat CB1 receptor expressed in HEK293 cells assessed as inhibition of forskolin-stimulated cAMP accumulation at 500 nM after 30 mins relative to CP-55,940; type: functional, cell-based; conditions: not given

Compound | Emax
CCCCOC(=O)[C@@H](C)c1cc(O)c2c(c1)OC(C)(C)[C@@H]1CC=C(C)C[C@@H]21 | 63%
CCCCOC(=O)C(C)(C)c1cc(O)c2c(c1)OC(C)(C)[C@@H]1CC=C(C)C[C@@H]21 | 92%

molecular target: T1, Cannabinoid receptor 1; experiment: Agonist activity at rat CB1 receptor expressed in HEK293 cells assessed as inhibition of forskolin-stimulated cAMP accumulation after 30 mins; type: functional, cell-based; conditions: not given

Compound | EC50
CCCCOC(=O)[C@@H](C)c1cc(O)c2c(c1)OC(C)(C)[C@@H]1CC=C(C)C[C@@H]21 | 4.2 nM
CCCCOC(=O)C(C)(C)c1cc(O)c2c(c1)OC(C)(C)[C@@H]1CC=C(C)C[C@@H]21 | 0.5 nM

test system: Rattus norvegicus; experiment: Induction of hypothermia in Sprague-Dawley rat at 0.1 to 3 mg/kg, sc measured for 6 hrs; type: functional, organism-based; conditions: not given

Compound | Activity
CCCCOC(=O)Cc1cc(O)c2c(c1)OC(C)(C)[C@@H]1CC=C(C)C[C@@H]21 | inactive

test system: Plasma; experiment: Half life in rat plasma at 200 uM by HPLC analysis; type: ADME, cell-free; conditions: not given

Compound | t1/2
CCCCOC(=O)[C@@H](C)c1cc(O)c2c(c1)OC(C)(C)[C@@H]1CC=C(C)C[C@@H]21 | 4.3 min
CCCCOC(=O)Cc1cc(O)c2c(c1)OC(C)(C)[C@@H]1CC=C(C)C[C@@H]21 | < 0.5 min
CCCCOC(=O)C(C)(C)c1cc(O)c2c(c1)OC(C)(C)[C@@H]1CC=C(C)C[C@@H]21 | 120 min

test system: Plasma; experiment: Half life in mouse plasma at 200 uM by HPLC analysis; type: ADME, cell-free; conditions: not given

Compound | t1/2
CCCCOC(=O)[C@@H](C)c1cc(O)c2c(c1)OC(C)(C)[C@@H]1CC=C(C)C[C@@H]21 | 4 min
CCCCOC(=O)Cc1cc(O)c2c(c1)OC(C)(C)[C@@H]1CC=C(C)C[C@@H]21 | 0.7 min
CCCCOC(=O)C(C)(C)c1cc(O)c2c(c1)OC(C)(C)[C@@H]1CC=C(C)C[C@@H]21 | 12.4 min

test system: Mus musculus; experiment: Analgesic activity in CD-1 mouse assessed as tail-flick withdrawal latency at 0.3 to 1 mg/kg, ip; type: functional, organism-based; conditions: not given

Compound | Activity
CCCCOC(=O)C(C)(C)c1cc(O)c2c(c1)OC(C)(C)[C@@H]1CC=C(C)C[C@@H]21 | Active

test system: Rattus norvegicus; experiment: Induction of hypothermia in Sprague-Dawley rat at 3 mg/kg, sc after 90 to 120 mins; type: functional, organism-based; design: dose 3 mg/kg; conditions: not given

Compound | Activity
CCCCOC(=O)[C@@H](C)c1cc(O)c2c(c1)OC(C)(C)[C@@H]1CC=C(C)C[C@@H]21 | Active

test system: Rattus norvegicus; experiment: Induction of hypothermia in Sprague-Dawley rat at 3 mg/kg, sc after 6 hrs; type: functional, organism-based; design: dose 3 mg/kg; conditions: not given

Compound | Activity
CCCCOC(=O)Cc1cc(O)c2c(c1)OC(C)(C)[C@@H]1CC=C(C)C[C@@H]21 | inactive
